Results as given in ChEMBL document CHEMBL1128898, “Sch 51048, a novel broad-spectrum orally active antifungal agent: Synthesis and preliminary structure-activity profile” (1995).

Key:
Type in all cases: functional
Conditions in all cases: inhaled or nasal
Mus musculus [1] = experiment: Compound was tested for percentage survival of immunocompromized CF-1 mice infected by inhalation with Aspergillus flavus strain ND134 at dose 50 mg/Kg
Mus musculus [2] = experiment: Compound was tested for percentage survival of immunocompromized CF-1 mice infected by inhalation with Aspergillus flavus strain ND134 at dose 100 mg/Kg
Mus musculus [3] = experiment: Compound was tested for percentage survival of normal CF-1 Mice infected […] albicans strain C-65 colony forming units at dose 25 mg/Kg
Mus musculus [4] = experiment: Compound was tested for percentage survival of normal CF-1 Mice infected […] albicans strain C-65 colony forming units at dose 50 mg/Kg
Mus musculus [5] = experiment: Compound was tested for percentage survival of immunocompromized CF-1 mice infected […] albicans strain C-65 colony forming units at dose 25 mg/Kg
Mus musculus [6] = experiment: Compound was tested for percentage survival of immunocompromized CF-1 mice infected […] albicans strain C-65 colony forming units at dose 50 mg/Kg
Mus musculus [7] = experiment: Compound was tested for percentage survival of immunocompromized CF-1 mice infected by inhalation with Aspergillus fumigatus strain ND142 conidia at dose 100 mg/Kg
Mus musculus [8] = experiment: Compound was tested for percentage survival of immunocompromized CF-1 mice infected by inhalation with Aspergillus fumigatus strain ND142 conidia at dose 50 mg/Kg
Mus musculus [9] = experiment: Compound was tested for percentage survival of immunocompromized CF-1 mice infected […] albicans strain C-65 colony forming units at dose 10 mg/Kg
Mus musculus [10] = experiment: Compound was tested for percentage survival of normal CF-1 Mice infected […] albicans strain C-65 colony forming units at dose 10 mg/Kg
Mus musculus [11] = experiment: Compound was tested for percentage survival of normal CF-1 Mice infected […] albicans strain C-65 colony forming units at dose 1 mg/kg

With `O=c1n(-c2ccc(N3CCN(c4ccc(OC[C@@H]5CC[C@@](Cn6cncn6)(c6ccc(F)cc6F)C5)cc4)CC3)cc2)cnn1C1CCCC1` as the compound, how does the survival at 50 mg/kg (Mus musculus [1]) read?
Its survival at 50 mg/kg is 40%.

And the survival at 100 mg/kg (Mus musculus [2])?
The survival at 100 mg/kg was 50%.

What about the survival at 25 mg/kg (Mus musculus [3]) of the same compound?
The survival at 25 mg/kg was 50%.

What about the survival at 50 mg/kg (Mus musculus [4]) of the same compound?
The survival at 50 mg/kg was 70%.

For `CCC(C)n1ncn(-c2ccc(N3CCN(c4ccc(OC[C@H]5CO[C@](Cn6cncn6)(c6cc(F)cc(F)c6)O5)cc4)CC3)cc2)c1=O` (some centres undefined), which survival at 25 mg/kg (Mus musculus [5]) is on record?
The survival at 25 mg/kg was 0%.

And the survival at 50 mg/kg (Mus musculus [6])?
Its survival at 50 mg/kg is 0%.

What about the survival at 25 mg/kg (Mus musculus [3]) of the same compound?
Its survival at 25 mg/kg is 20%.

And the survival at 50 mg/kg (Mus musculus [4])?
The survival at 50 mg/kg was 30%.

With `CC(C)n1ncn(-c2ccc(N3CCN(c4ccc(OC[C@@H]5CC[C@@](Cn6cncn6)(c6ccc(F)cc6F)C5)cc4)CC3)cc2)c1=O` as the compound, how does the survival at 100 mg/kg (Mus musculus [7]) read?
Its survival at 100 mg/kg is 10%.

And the survival at 50 mg/kg (Mus musculus [8])?
The survival at 50 mg/kg was 10%.

What does the source list for `CCC(CC)n1ncn(-c2ccc(N3CCN(c4ccc(OC[C@@H]5CO[C@@](Cn6cncn6)(c6ccc(F)cc6F)C5)cc4)CC3)cc2)c1=O`?
survival at 50 mg/kg (Mus musculus [1]): 60%; survival at 50 mg/kg (Mus musculus [8]): 70%; survival at 10 mg/kg (Mus musculus [9]): 20%; survival at 25 mg/kg (Mus musculus [5]): 30%; survival at 50 mg/kg (Mus musculus [6]): 50%; survival at 10 mg/kg (Mus musculus [10]): 100%; survival at 1 mg/kg (Mus musculus [11]): 80%; survival at 25 mg/kg (Mus musculus [3]): 100%

For `CCC(C)n1ncn(-c2ccc(N3CCN(c4ccc(OC[C@@H]5CO[C@@](Cn6cncn6)(c6ccc(F)cc6F)C5)cc4)CC3)cc2)c1=O` (single isomer, unassigned), which survival at 50 mg/kg (Mus musculus [1]) is on record?
The survival at 50 mg/kg was 80%.

And the survival at 100 mg/kg (Mus musculus [2])?
The survival at 100 mg/kg was 90%.

What about the survival at 100 mg/kg (Mus musculus [7]) of the same compound?
Its survival at 100 mg/kg is 30%.

And the survival at 50 mg/kg (Mus musculus [8])?
The survival at 50 mg/kg was 10%.

And the survival at 10 mg/kg (Mus musculus [9])?
Its survival at 10 mg/kg is 30%.

And the survival at 25 mg/kg (Mus musculus [5])?
The survival at 25 mg/kg was 40%.

What about the survival at 50 mg/kg (Mus musculus [6]) of the same compound?
Its survival at 50 mg/kg is 40%.

What about the survival at 10 mg/kg (Mus musculus [10]) of the same compound?
Its survival at 10 mg/kg is 80%.

What about the survival at 25 mg/kg (Mus musculus [3]) of the same compound?
Its survival at 25 mg/kg is 90%.

What about the survival at 50 mg/kg (Mus musculus [4]) of the same compound?
The survival at 50 mg/kg was 100%.

How did the survival at 10 mg/kg (Mus musculus [9]) turn out when `OC(Cn1cncn1)(Cn1cncn1)c1ccc(F)cc1F` [FLUCONAZOLE] was run?
The survival at 10 mg/kg was 30%.

What about the survival at 25 mg/kg (Mus musculus [5]) of the same compound?
Its survival at 25 mg/kg is 40%.

What about the survival at 10 mg/kg (Mus musculus [10]) of the same compound?
Its survival at 10 mg/kg is 90%.

And the survival at 1 mg/kg (Mus musculus [11])?
The survival at 1 mg/kg was 0%.

What about the survival at 25 mg/kg (Mus musculus [3]) of the same compound?
Its survival at 25 mg/kg is 100%.

What does the source list for `CCC(C)n1ncn(-c2ccc(N3CCN(c4ccc(OC[C@H]5CO[C@](Cn6cncn6)(c6ccc(Cl)cc6Cl)O5)cc4)CC3)cc2)c1=O` (some centres undefined) [ITRACONAZOLE]?
survival at 100 mg/kg (Mus musculus [2]): 20%; survival at 100 mg/kg (Mus musculus [7]): 10%; survival at 25 mg/kg (Mus musculus [5]): 0%; survival at 50 mg/kg (Mus musculus [6]): 20%; survival at 25 mg/kg (Mus musculus [3]): 0%; survival at 50 mg/kg (Mus musculus [4]): 40%
